One compound from ChEMBL document CHEMBL4428076 (J Med Chem, 2016) can be followed below.

Data set [1] addresses Mu-type opioid receptor (Mus musculus, UniProt P42866). As to the kind of experiment: Agonist activity at mouse mu opioid receptor-1 expressed in CHO cell membranes assessed as [35S]GTPgammaS binding incubated for 60 mins by scintillation spectroscopic analysis. It counts as functional.
Data set [2] addresses Mu-type opioid receptor (Mus musculus) (UniProt P42866). As to the kind of experiment: Agonist activity at mouse mu opioid receptor-1 expressed in CHO cell membranes assessed as [35S]GTPgammaS binding incubated for 60 mins by scintillation spectroscopic analysis relative to DAMGO. Type of data set: functional.
Data set [3] concerns the target T1, Alpha-2A adrenergic receptor (Homo sapiens) (UniProt P08913).
T1 sequence (whole entry): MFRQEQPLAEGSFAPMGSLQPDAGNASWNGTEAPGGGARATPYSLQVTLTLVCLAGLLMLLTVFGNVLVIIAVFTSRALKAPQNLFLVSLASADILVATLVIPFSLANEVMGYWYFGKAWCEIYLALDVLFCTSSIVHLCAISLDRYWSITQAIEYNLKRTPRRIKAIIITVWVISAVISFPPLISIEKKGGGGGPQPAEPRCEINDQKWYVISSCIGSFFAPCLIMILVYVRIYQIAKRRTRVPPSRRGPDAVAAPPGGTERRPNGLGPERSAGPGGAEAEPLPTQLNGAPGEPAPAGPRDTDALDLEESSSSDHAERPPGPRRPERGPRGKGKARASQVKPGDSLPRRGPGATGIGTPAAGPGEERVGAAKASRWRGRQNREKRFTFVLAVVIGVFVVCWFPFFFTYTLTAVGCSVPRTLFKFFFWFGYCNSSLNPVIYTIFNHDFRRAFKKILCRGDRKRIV
The data set is described as follows: Displacement of [3H]rauwolscine from recombinant human adrenergic alpha2A receptor expressed in MDCK cell membrane after 90 mins by microbeta scintillation counting method.

The target in data set [4] is T2, Alpha-2C adrenergic receptor (Homo sapiens) (UniProt P18825).
T2 sequence (whole entry): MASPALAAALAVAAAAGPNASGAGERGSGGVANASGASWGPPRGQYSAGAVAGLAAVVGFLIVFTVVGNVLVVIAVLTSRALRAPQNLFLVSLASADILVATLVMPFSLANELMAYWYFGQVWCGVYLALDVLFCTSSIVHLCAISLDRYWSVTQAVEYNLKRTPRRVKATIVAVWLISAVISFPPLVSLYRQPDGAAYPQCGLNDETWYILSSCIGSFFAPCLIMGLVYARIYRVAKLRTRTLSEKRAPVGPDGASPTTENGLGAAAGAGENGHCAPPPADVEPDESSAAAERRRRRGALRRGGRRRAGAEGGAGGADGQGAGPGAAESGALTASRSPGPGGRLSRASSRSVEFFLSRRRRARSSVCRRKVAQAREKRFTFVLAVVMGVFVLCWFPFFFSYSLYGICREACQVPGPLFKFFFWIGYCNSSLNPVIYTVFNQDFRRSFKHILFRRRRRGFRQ
As to the kind of experiment: Displacement of [3H]rauwolscine from recombinant human adrenergic alpha2C receptor expressed in MDCK cell membrane after 90 mins by microbeta scintillation counting method.

In data set [5] the test system is Mus musculus. The data set is described as follows: Antinociceptive activity in sc dosed CD-1 mouse assessed as increase in latency latency to respond with hind paw lick or shake/flutter measured 15 mins post dose by hot plate test. To be noted: CD-1, sc, 0.25 h. It counts as functional.
Data set [6] relates to Mus musculus. As to the kind of experiment: Antinociceptive activity in C57BL/6 mouse assessed as increase in reaction time at 0.1 to 10 mg/kg, sc measured 15 mins post dose by radiant heat tail flick assay. It counts as functional, organism-based.
Data set [7] relates to Mus musculus. As to the kind of experiment: Antinociceptive activity in CD-1 mouse assessed as increase in reaction time at 1.5 mg/kg, sc administered on day 6 after KOR1-exon2 antisense oligodeoxynucleotide injection on day 1, 3 and 5 by radiant heat tail flick assay. It counts as functional, organism-based.
Data set [8] in a line: Toxicity in CD-1 mouse assessed as time for drug tolerance at 1.5 mg/kg, sc bid at dosing intervals of 12 hrs. Type of data set: organism-based. The conditions noted are these: in vivo.
Data set [9] relates to Mus musculus. The data set is described as follows: Antinociceptive activity in sc dosed CD-1 mouse assessed as increase in reaction time administered twice daily at dosing intervals of 12 hrs for 5 days by radiant heat tail flick assay. It counts as functional. To be noted: CD-1, sc.
For data set [10], the system named is Mus musculus. The data set is described as follows: Ratio of ED50 for sc dosed CD-1 mouse administered twice daily at dosing intervals of 12 hrs for 5 days to ED50 for sc dosed CD-1 mouse measured 15 mins post dose. It counts as functional.
Data set [11] is described as follows: Toxicity in CD-1 mouse assessed as physical dependence by measuring number of jumps at 1.5 mg/kg, sc bid for 22 days followed by opioid antagonist naloxone injection on day 22 measured for 15 mins post last dose. It counts as organism-based. To be noted: in vivo, 0.25 h.
Data set [12] can be described thus: Toxicity in C57BL/6 mouse assessed as decrease in respiratory rate at 3 mg/kg, sc measured at 15 to 35 mins post dose relative to control. It counts as organism-based. On the set-up: scale not given: the % may be the effect or the level left. The conditions noted are these: in vivo.

Calls of active or inactive are those of the source. No cut-off for these calls is given here.

Chain of Mu-type opioid receptor (P42866 whole entry): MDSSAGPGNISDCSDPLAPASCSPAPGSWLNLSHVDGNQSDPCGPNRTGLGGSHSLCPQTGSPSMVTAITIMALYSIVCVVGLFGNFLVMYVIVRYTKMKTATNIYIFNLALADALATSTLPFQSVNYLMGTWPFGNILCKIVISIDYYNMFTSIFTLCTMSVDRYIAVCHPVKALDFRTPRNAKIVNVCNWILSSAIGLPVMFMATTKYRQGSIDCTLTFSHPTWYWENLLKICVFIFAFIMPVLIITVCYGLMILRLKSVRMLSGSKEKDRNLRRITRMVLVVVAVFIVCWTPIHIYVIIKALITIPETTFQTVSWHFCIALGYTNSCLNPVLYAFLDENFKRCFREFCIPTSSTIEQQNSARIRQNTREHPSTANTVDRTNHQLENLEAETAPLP
Chain of Mu-type opioid receptor (Mus musculus) (P42866 whole entry): as above

Turning to `CC[C@@H]1CN2CC[C@]3(Nc4cccc(OC)c4C3=O)[C@@H]2C[C@@H]1/C(=C\OC)C(=O)OC`, the EC50 in [1] stood at 1.7 nM. Further, the Emax in [2] was found to be 84%. Also, the inhibition entry in [3] and in data set [4] was “Active” each time. The values for the ED50 in data set [5] and in data set [9] were 0.99 mg/kg and 1.1 mg/kg, respectively. The result in data set [6] and in [7] was Active. For the same compound, the Time in [8] amounted to 29 days. In data set [10], the “Ratio ED50” value is on record as less than 2. The Activity in data set [11] stood at 13; in data set [12], 15%.
